The test addresses T1, human GnRH receptor (Homo sapiens, UniProt P30968).
T1 construct: expressed in transfected cells; host or cells: HEK 293 (hGnRH-R/293, from Dr. Stuart Sealfon)
T1 sequence (P30968 1-328): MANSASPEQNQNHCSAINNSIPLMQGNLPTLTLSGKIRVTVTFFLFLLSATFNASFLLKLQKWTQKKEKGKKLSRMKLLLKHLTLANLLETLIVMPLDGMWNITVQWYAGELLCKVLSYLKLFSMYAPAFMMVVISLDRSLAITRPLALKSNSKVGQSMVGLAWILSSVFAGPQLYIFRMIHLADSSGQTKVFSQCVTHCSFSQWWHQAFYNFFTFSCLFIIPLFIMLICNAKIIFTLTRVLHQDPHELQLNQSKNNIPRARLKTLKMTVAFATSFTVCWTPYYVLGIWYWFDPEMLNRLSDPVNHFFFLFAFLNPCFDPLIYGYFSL
Description: Radioligand binding, 125I-GnRH-A displacement, membranes of HEK 293 cells with human GnRH receptor. In outline:
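Bound tracer was separated by filtration through polyethyleneimine-soaked GF/C filters and counted by liquid scintillation. IC50 from curve fitting; other species were tested under the same conditions.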

The mark [1] stands for this setting: 1 uM, read-out: % Inhib. @ 1 uM hGnRH.
[2] abbreviates: 1 h, repeat of % Inhib. at 1 uM, read-out: Repeats @ 1 uM hGnRH.

Where two headings read alike, the source gives them in different places.

For `Cc1cc2c(cc1Cc1ccc(C(=O)NCC3CCN(C(=N)N)CC3)o1)C(C)(C)CCC2(C)C` [drawing 1063], the inhibition at 1 µM is, setting by setting: under setting [1], 26%; under setting [2], 87%.
On the same counts, the results for `Cc1cc2c(cc1Cc1ccc(C(=O)NCC3CCN(c4ccnc(Cl)n4)CC3)o1)C(C)(C)CCC2(C)C` [drawing 1064] are 79% and 91%.
In the same order, the values of `Cc1cc2c(cc1Cc1ccc(C(=O)NCc3cccnc3)o1)C(C)(C)CCC2(C)C` [drawing 1067] are 69% and 74%.
On the same counts, the results for `Cc1cc2c(cc1Cc1ccc(C(=O)NCCOCCO)o1)C(C)(C)CCC2(C)C` [drawing 1068] are 67% and 69%.
Turning to `Cc1cc2c(cc1Cc1ccc(C(=O)NCc3ccccc3)o1)C(C)(C)CCC2(C)C` [drawing 1070], the inhibition at 1 µM is, setting by setting: under setting [1], 82%; under setting [2], 85%.
For `Cc1cc2c(cc1Cc1ccc(C(=O)NC(c3ccccc3)c3ccccc3)o1)C(C)(C)CCC2(C)C` [drawing 1071], the “% Inhib. @ 1 uM hGnRH” value (1 uM) is −6%. Also, the “Repeats @ 1 uM hGnRH” value (repeat of % Inhib. at 1 uM) is 2.
On the same counts, the results for `Cc1cc2c(cc1Cc1ccc(C(=O)NC(c3ccccc3)C(O)c3ccccc3)o1)C(C)(C)CCC2(C)C` (stereo not shown) [drawing 1072] are 56% and 57.
On the same counts, the results for `Cc1cc2c(cc1Cc1ccc(C(=O)NC(c3ccccc3)C(O)c3ccccc3)o1)C(C)(C)CCC2(C)C` (stereo not shown) [drawing 1073] are −11% and −8.
In the case of `Cc1cc2c(cc1Cc1ccc(C(=O)NC(c3ccccc3)c3ccccc3)o1)C(C)(C)CCC2(C)C` [drawing 1077], the “% Inhib. @ 1 uM hGnRH” value (1 uM) is on record as −7%. Moreover, the “Repeats @ 1 uM hGnRH” value (repeat of % Inhib. at 1 uM) is on record as −7.
For `COc1ccccc1CNC(=O)c1ccc(Cc2cc3c(cc2C)C(C)(C)CCC3(C)C)o1` [drawing 1078], the inhibition at 1 µM under setting [1] came to 86% and the inhibition at 1 µM under setting [2] turned out to be 88%.
Turning to `Cc1cc2c(cc1Cc1ccc(C(=O)NCCc3ccccc3)o1)C(C)(C)CCC2(C)C` [drawing 1079], the inhibition at 1 µM reads like this: under setting [1], 59%; under setting [2], 60%.
`Cc1cc2c(cc1Cc1ccc(C(=O)NCCNc3ccccc3)o1)C(C)(C)CCC2(C)C` [drawing 1080]: the inhibition at 1 µM is, setting by setting: under setting [1], 70%; under setting [2], 72%.
On the same counts, the results for `Cc1cc2c(cc1Cc1ccc(C(=O)NCc3ccco3)o1)C(C)(C)CCC2(C)C` [drawing 1089] are 79% and 82%.
On the same counts, the results for `Cc1cc2c(cc1Cc1ccc(C(=O)NCc3ccccc3F)o1)C(C)(C)CCC2(C)C` [drawing 1090] are 81% and 89%.
With `Cc1cc2c(cc1Cc1ccc(C(=O)NCc3ccc(Cl)cc3)o1)C(C)(C)CCC2(C)C` [drawing 1091], the inhibition at 1 µM by setting is: under setting [1], 68%; under setting [2], 68%.
For the compound `Cc1cc2c(cc1Cc1ccc(C(=O)N3CCN(c4ccccc4)CC3)o1)C(C)(C)CCC2(C)C` [drawing 1092], the “% Inhib. @ 1 uM hGnRH” value (1 uM) is listed as −1%. Besides, under setting [2], the inhibition at 1 µM came out at 6%.
For the compound `COc1cccc(CNC(=O)c2ccc(Cc3cc4c(cc3C)C(C)(C)CCC4(C)C)o2)c1OC` [drawing 1093], the inhibition at 1 µM under setting [1] came out at 76% and the inhibition at 1 µM under setting [2] amounted to 83%.
In the same order, the values of `COc1cc(OC)c(CNC(=O)c2ccc(Cc3cc4c(cc3C)C(C)(C)CCC4(C)C)o2)c(OC)c1` [drawing 1094] are -10% and 13%.
In the same order, the values of `COc1ccc(CNC(=O)c2ccc(Cc3cc4c(cc3C)C(C)(C)CCC4(C)C)o2)cc1OC` [drawing 1095] are 69% and 75%.
In the same order, the values of `CCOc1ccccc1CNC(=O)c1ccc(Cc2cc3c(cc2C)C(C)(C)CCC3(C)C)o1` [drawing 1096] are 48% and 55%.

For the origin of these results see patent US7101878B1 (Agouron Pharmaceuticals, Inc., priority 1998, dated 2006).
